pIC50: −log10 of the molar value.
Legend:
HCT116 MTAP +/+ = assay: Inhibition of cellular proliferation, 4 days, Cell Titer Glo, HCT116 MTAP+/+; type: cell-based; conditions: Homo sapiens, HCT-116, 96 h, IC50 score, read-out: 4 Day Relative Growth Inhibition (MTAP +/+)
Protocol: (§1) Assay for Inhibition of Cellular Proliferation
(§2) Test compound impact on cancer cell growth was assessed by treating cancer cells with compound for 4 days and then measuring proliferation using an ATP-based cell proliferation readout (Cell Titer Glo, Promega Corporation).
(§3) In a typical assay an isogenic pair of HCT116 human colon carcinoma cell lines which vary only in MTAP deletion status (HCT116 MTAP +/+ and HCT116 MTAP−/−) were plated in 96-well dishes at appropriate cell density. Following 24 hours, cells were then treated with the candidate MAT2A inhibitor. Prior to addition to cells, the compound was first serially diluted in 100% DMSO, typically as a 3-fold serial dilution starting at 500× top dose with 10 dose points including DMSO only control. Compound was then transferred to a working stock plate in cell culture media by adding 5 μL of compound in DMSO to 495 μL of cell culture media. This working stock was then added to cells via a further 5-fold dilution, by adding 25 μL of working stock to 100 μL of cells in culture media. Following compound addition, cells were incubated at 37° C./5% C02 for 4 days.
(§4) To measure inhibition of cellular proliferation, cells were allowed to equilibrate to room temperature for 30 minutes, and were then treated with 125 μL of Cell Titer Glo reagent. The plate was then covered with aluminum foil and shaken for 15 minutes to ensure complete mixing and full cell lysis. Luminescent signal was then measured using a plate-based luminometer Veritas version 1.9.2 using ATP standard curve to confirm assay reproducibility from run to run. This luminescence measure was converted to a proliferation index by subtracting from each data point the ATP luminescence signal measured from a bank (no cells) well and dividing by the ATP luminescence signal measured in 0.2% DMSO control well adjusted for signal in blank well. Compound activity was then represented as a percentage change in proliferation relative to a within-plate DMSO control against log 10 of compound concentration in molar (M) units.

HCT116 MTAP-/- = assay: Inhibition of cellular proliferation, 4 days, Cell Titer Glo, HCT116 MTAP-/-; type: cell-based; conditions: Homo sapiens, HCT-116, 96 h, IC50 score, read-out: 4 Day Relative Growth Inhibition (MTAP −/−)
Protocol: as §1, §2, §3, §4

[1] = system: SAM in HCT116 human colon carcinoma cell line with deleted MTAP gene; assay: Cellular assay of target engagement (SAM): SAM level by LC-MS/MS after 72 hrs; type: cell-based; conditions: HCT-116, IC50 score, read-out: Cell 72 h SAM Inhibition (MTAP −/−)
Protocol: Cellular Assay of Target Engagement (SAM)
Measurement of MAT2A activity in cells was made by direct quantitation of the abundance of the product of its enzymatic activity, SAM. Cancer cells were treated with candidate MAT2A inhibitors for a suitable incubation period, and the cells were then lysed using a reagent which quenched any further enzyme activity. Soluble metabolites including SAM were collected and SAM itself was directly measured from the lysate using quantitative LC-MS/MS.
A typical assay was performed using an HCT116 human colon carcinoma cell line which was genetically engineered to delete the MTAP gene (commercially available from Horizon Discovery). This cell line was utilized because it was determined that loss of the MTAP gene predicts sensitivity to MAT2A inhibitors. Cells were plated in 96-well dishes at appropriate cell density. Following 24 hours, cells were then treated with the candidate MAT2A inhibitor. Prior to addition to cells, the compound was first serially diluted in 100% DMSO, typically as a 3-fold serial dilution starting at 500× top dose with 10 dose points including DMSO only control. Compound was then transferred to a working stock plate in cell culture media by adding 5 μL of compound in DMSO to 495 μL of cell culture media. This working stock was then added to cells via a further 5-fold dilution, by adding 25 μL of working stock to 100 μL of cells in culture media. Following compound addition, cells were incubated at 37° C./5% CO2 for 72 hrs.
To quantitate SAM levels following compound treatment, cells were gently washed once in ammonium carbonate buffer (75 mM at pH 7.4), placed on dry ice, and lysed with metabolite extraction buffer (80% cold methanol and 20% water (v/v) with acetic acid at 1M final concentration with 200 ng/mL deuterated d3-SAM as internal control). Following centrifugation at 4° C. at 3,200 rpm for 30 minutes, the supernatant was collected and stored at −80° C. until analysis by Liquid Chromatography with tandem Mass Spectrometry (LC-MS/MS). LC-MS/MS analysis was performed using an API6500 Mass Spectrometer (Sciex, Framingham, Mass., USA) operating in positive ion spray mode and equipped with a Waters UPLC Acquity (Waters, Milford, Mass., USA) BEH Amide column. Multiple Reaction Monitoring data was acquired for SAM and the d3-SAM standard, using a mass transition pair at m/z 399.2→250.1 and 402.2→250.1, respectively. In a typical LC-MS/MS analysis, the initial flow rate was 0.5 ml/min of 25% mobile phase A (acetonitrile and water at 5:95 (v/v) with 1% formic acid and 10 mM ammonium acetate) and 75% mobile phase B (acetonitrile and water at 95:5 (v/v) with 1% formic acid and 10 mM ammonium acetate), 0.2-0.5 minutes with 75%-35% mobile phase B, 25%-65% mobile phase A, at 0.5 min 65% mobile phase A and 35% mobile phase B, 1.0-1.1 minutes with 35%-75% mobile phase B, 65%-25% mobile phase A, at 1.1 min 25% mobile phase A and 75% mobile phase B with a total run time of 1.5 minutes.

MAT2A homodimer = target: T1, MAT2A homodimer (Homo sapiens, UniProt P31153); assay: Biochemical assay: inhibition of recombinant MAT2A homodimer (phosphate release, PiColorLock Gold); conditions: MAT2A IC50 score; read-out: Enzyme Inhibition
T1 construct: inferred from Ni sepharose purification and imidazole elution; made in house; host or cells: Sf9 insect cells, recombinant baculovirus (Bac to Bac, pFASTBAC1 vector)
T1 sequence (P31153 whole entry): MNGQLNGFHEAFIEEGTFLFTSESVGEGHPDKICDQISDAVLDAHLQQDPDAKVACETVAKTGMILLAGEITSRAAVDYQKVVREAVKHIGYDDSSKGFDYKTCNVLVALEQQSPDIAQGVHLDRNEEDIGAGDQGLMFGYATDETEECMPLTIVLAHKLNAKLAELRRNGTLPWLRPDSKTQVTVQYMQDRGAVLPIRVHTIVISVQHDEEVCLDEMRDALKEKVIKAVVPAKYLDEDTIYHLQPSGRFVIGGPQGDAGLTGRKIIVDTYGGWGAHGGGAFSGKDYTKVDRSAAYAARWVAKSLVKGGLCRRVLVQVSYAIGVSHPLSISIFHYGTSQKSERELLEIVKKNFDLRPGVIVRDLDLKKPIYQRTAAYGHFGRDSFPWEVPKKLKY
Protocol: Mat2A protein was expressed by recombinant baculovirus in SF9 infected cells using the Bac to Bac system cloned into the pFASTBAC1 vector (Invitrogen, Carlsbad, Calif.). Recombinant MAT2A was isolated from the cell lysate of 150 g of infected cells using HP Ni sepharose column chromatography. Recombinant MAT2A homodimer was eluted with 250 and 500 mM imidazole, and fractions containing MAT2A were identified by sodium dodecyl sulfate polyacrylamide gel electrophoresis and pooled.
For determination of the inhibitory potency of compounds against the MAT2A homodimer, protein was diluted to 4 μg/mL in assay buffer (50 mM Tris, pH 8.0, 50 mM KCl, 15 mM MgCl2, 0.3 mM EDTA, 0.005% [w/v] bovine serum albumin [BSA]). Test compound was prepared in 100% dimethyl sulfoxide (DMSO) at 50× the desired final concentration. A 1 μL volume of compound dilution was added to 40 μL of enzyme dilution and the mixture was allowed to equilibrate for 60 minutes at 25° C. The enzymatic assay was initiated by the addition of 10 μL of substrate mix (500 μM ATP, pH 7.0, 40 μM L-methionine in 1× assay buffer), and the mixture was incubated for a further 60 minutes at 25° C. The reaction was halted and the liberated phosphate released by the enzyme in stoichiometric amounts by the production of S-adenosyl methionine (SAM) was measured using the PiColorLock Gold kit (Innova Biosciences, UK). Absolute product amounts were determined by comparison to a standard curve of potassium phosphate buffer, pH 8.0.

| pIC50 (HCT116 MTAP +/+) | pIC50 (HCT116 MTAP-/-) | pIC50 [1] | pIC50 (MAT2A homodimer) | Structure (SMILES) |
| --- | --- | --- | --- | --- |
| 6.00 to 7.00 | > 7.00 | > 7.00 | > 7.00 | COc1ccc(-n2c(=O)c(-c3ccc4nn(C)cc4c3)nc3c(N)cc(OCC(F)(F)F)nc32)cc1 [Example 352, 8-amino-4-(4-methoxyphenyl)-2-(2-methyl-2H-indazol-5-yl)-6-(2,2,2-trifluoroethoxy)pyrido[2,3-b]pyrazin-3(4H)-one] |
| ≤ 6.00 | 6.00 to 7.00 | 6.00 to 7.00 | > 7.00 | COc1ccc(-n2c(=O)c(-c3cnn(C)c3)cc3cnc(NCC(F)(F)F)nc32)cc1 [Example 187] |
| 6.00 to 7.00 | 6.00 to 7.00 | > 7.00 | > 7.00 | CCOc1ccc2cc(-c3ccc4nn(CC(C)(C)O)cc4c3)c(=O)n(-c3ccc(OC(F)F)cc3)c2n1 [Example 207] |
| ≤ 6.00 | > 7.00 | > 7.00 | > 7.00 | COc1ccc(-c2cc3cnc(NCC(F)(F)F)nc3n(-c3ccc(CCO)cc3)c2=O)cc1 [Example 129] |
| ≤ 6.00 | > 7.00 | > 7.00 | > 7.00 | Cn1cc2cc(-c3nc4ccc(NCC(F)(F)F)nc4n(-c4ccc(OC(F)F)cc4)c3=O)ccc2n1 [Example 225] |
| ≤ 6.00 | 6.00 to 7.00 | 6.00 to 7.00 | > 7.00 | COc1ccc(-n2c(=O)c(-c3ccc4ncoc4c3)cc3cnc(NCC(F)(F)F)nc32)cc1 [Example 189] |
| ≤ 6.00 | ≤ 6.00 | > 7.00 | > 7.00 | COc1ccc(-n2c(=O)c(-c3ccc4[nH]cnc4c3)cc3cnc(NCC(F)(F)F)nc32)cc1 [Example 174] |
| ≤ 6.00 | > 7.00 | > 7.00 | > 7.00 | COc1ccc(-c2nc3ccc(NCC(F)(F)F)nc3n(-c3ccc(OC(F)F)cc3)c2=O)cc1 [Example 227] |
| ≤ 6.00 | > 7.00 | > 7.00 | > 7.00 | COc1ccc(-c2cc3ncc(NCC(F)(F)F)nc3n(-c3ccc(OC(F)F)cc3)c2=O)cc1 [Example 237, 5-(4-(difluoromethoxy)phenyl)-7-(4-methoxyphenyl)-3-((2,2,2-trifluoroethyl)amino)pyrido[2,3-b]pyrazin-6(5H)-one] |
| ≤ 6.00 | 6.00 to 7.00 | > 7.00 | > 7.00 | COc1ccc(-n2c(=O)c(-c3ccc4nccnc4c3)cc3cnc(NCC(F)(F)F)nc32)cc1 [Example 185] |
| ≤ 6.00 | 6.00 to 7.00 | > 7.00 | > 7.00 | COc1ccc(-c2cc3cnc(NCC(F)(F)F)nc3n(-c3ccc(OC)cc3)c2=O)cc1 [Example 115] |
| ≤ 6.00 | > 7.00 | > 7.00 | > 7.00 | COc1ccc(-c2cc3cnc(NCC(F)(F)F)nc3n(-c3ccc(C4CC4)cc3)c2=O)cc1 [Example 118] |
| – | – | > 7.00 | > 7.00 | [2H]C([2H])([2H])Oc1ccc(-n2c(=O)c(-c3ccc4nn(C)cc4c3)cc3ccc(O[C@H](C)C(F)(F)F)nc32)cc1 [Example 304] |

More lines, now with the values behind:

| Structure (SMILES) | pIC50 (HCT116 MTAP +/+) | pIC50 (HCT116 MTAP-/-) | pIC50 [1] | pIC50 (MAT2A homodimer) |
| --- | --- | --- | --- | --- |
| CCOc1ccc2cc(-c3ccc4nn(C)cc4c3)c(=O)n(-c3ccc(OC(F)F)cc3)c2n1 [Example 140] | 6.00 to 7.00 | > 7.00 | > 7.00 | > 7.00 |
| [2H]C([2H])([2H])Oc1ccc(-n2c(=O)c(-c3ccc4nn(C)cc4c3)nc3ccc(OCC)nc32)cc1 [Example 324] | 6.00 to 7.00 | > 7.00 | > 7.00 | > 7.00 |
| CCOc1ccc2nc(-c3ccc4nn(C)cc4c3)c(=O)n(-c3ccc(OC(F)F)cc3)c2n1 [Example 224] | 6.00 to 7.00 | > 7.00 | > 7.00 | > 7.00 |
| CCCc1ccc2cc(-c3ccc4nn(C)cc4c3)c(=O)n(-c3ccc(Cl)cc3)c2n1 [Example 236, 1-(4-chlorophenyl)-3-(2-methyl-2H-indazol-5-yl)-7-propyl-1,8-naphthyridin-2(1H)-one] | ≤ 6.00 | > 7.00 | > 7.00 | > 7.00 |
| CNc1ccc(-n2c(=O)c(-c3ccc4nn(C)cc4c3)nc3ccc(OCC(F)(F)F)nc32)cn1 [Example 348, 2-(2-methyl-2H-indazol-5-yl)-4-(6-(methylamino)pyridin-3-yl)-6-(2,2,2-trifluoroethoxy)pyrido[2,3-b]pyrazin-3(4H)-one] | ≤ 6.00 | > 7.00 | > 7.00 | > 7.00 |
| CCOc1cnc2cc(-c3ccc4nn(C)cc4c3)c(=O)n(-c3ccc(OC(F)F)cc3)c2n1 [Example 231] | 6.00 to 7.00 | > 7.00 | > 7.00 | > 7.00 |
| CCOc1ccc2cc(-c3ccc4nn(C)cc4c3)c(=O)n(-c3ccc(Br)cc3)c2n1 [Example 317] | 6.00 to 7.00 | 6.00 to 7.00 | > 7.00 | > 7.00 |
| CCOc1ccc2cc(-c3ccc4nnn(C)c4c3)c(=O)n(-c3ccc(OC(F)F)cc3)c2n1 [Example 209] | 6.00 to 7.00 | > 7.00 | > 7.00 | > 7.00 |
| Cn1cc2cc(-c3cc4ccc(OCC(F)(F)F)nc4n(-c4ccc(C5CC5)nc4)c3=O)ccc2n1 [Example 166] | ≤ 6.00 | > 7.00 | > 7.00 | > 7.00 |
| CCOc1ccc2cc(-c3ccc4nncn4c3)c(=O)n(-c3ccc(C4CC4)nc3)c2n1 [Example 215] | – | > 7.00 | > 7.00 | > 7.00 |

— patent publication US20220251081A1, “HETEROBICYCLIC INHIBITORS OF MAT2A AND METHODS OF USE FOR TREATING CANCER” (priority 2019, published 2022)
